What was measured:
Format in all cases: cell-based
decorin = assay: Dot blot assay for decorin synthesis in human dermal fibroblasts; settings: primary human foreskin fibroblasts, 24 hours, relative to vehicle control; effect similar to retinoic acid
Experimental: Procedure For Measuring Procollagen-I and Decorin Synthesis in Human Dermal Fibroblasts
Preparation of Dermal Fibroblast Conditioned Medium
Primary human foreskin fibroblasts at passage 2 (P2) were seeded into 12-well plates at 10000 cells/cm^2 and maintained for 24 hours in an atmosphere of 5% carbon dioxide and 4% oxygen in Dulbeccos Modified Eagles Medium (DMEM) supplemented with 10% foetal calf serum. After this time the cells were washed with serum free DMEM and then incubated in fresh serum free DMEM for a further 60 hours. The fibroblast monolayers were then washed again with serum free DMEM. […] This fibroblast conditioned medium was either analyzed immediately or snap frozen in liquid nitrogen and stored at −70° C. for future analysis. The cells were then counted and data from the dot-blot analysis subsequently standardized to cell number. […]
Following this the Immobilon strips were again washed with TBS/Tween 20 (3×5 minutes) before being allowed to dry in air at room temperature. […] Dot intensity was assessed by computer-assisted image TM analysis using the quantification tools in ImageQuant™, standardized to cell number and the effects of various test reagents on decorin and procollagen-I synthesis were determined relative to a vehicle treated control value of 100 arbitrary units.

PPARα = molecular target: T1, PPARα (Homo sapiens, UniProt Q07869); assay: Reporter gene assay (PPARα) in transfected Cos-7 cells; settings: 10 μM, 24 hours
T1 construct: expressed in transfected cells; host or cells: Cos-7 cells (ECACC No. 87021302), transient transfection with LipofectAMINE
T1 sequence (Q07869 1-468): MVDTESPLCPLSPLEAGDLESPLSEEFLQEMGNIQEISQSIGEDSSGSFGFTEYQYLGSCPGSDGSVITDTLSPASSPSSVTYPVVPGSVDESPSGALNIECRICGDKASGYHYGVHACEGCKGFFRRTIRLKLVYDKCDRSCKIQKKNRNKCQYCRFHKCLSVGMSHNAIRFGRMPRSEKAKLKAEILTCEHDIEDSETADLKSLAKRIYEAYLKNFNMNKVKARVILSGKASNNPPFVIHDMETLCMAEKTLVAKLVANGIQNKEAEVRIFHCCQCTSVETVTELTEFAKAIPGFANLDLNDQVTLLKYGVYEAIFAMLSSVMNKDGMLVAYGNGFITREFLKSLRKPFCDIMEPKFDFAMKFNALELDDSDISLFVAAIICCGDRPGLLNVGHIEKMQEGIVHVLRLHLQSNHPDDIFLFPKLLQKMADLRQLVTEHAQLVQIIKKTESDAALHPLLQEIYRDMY
Experimental: The following assay protocol is responsive to ligands of PPARα or retinoid X receptor.
Reporter Gene Assay Protocol
Cos-7 cells (ECACC No. 87021302) were routinely grown in DMEM with 10% FCS (foetal calf serum) at 37° C., 5% CO2 to 80% confluency. Transient transfections were performed as described by the manufacturers (GibcoBRL). Briefly, cells were plated out in 24 well plates at 50,000 cells per well and incubated overnight in DMEM with 10% FCS at 37° C., 5% CO2,. Cells were then transfected using the LipofectAMINE reagent. For each well, 0.5 μg of DNA mix (for “control” cells pPPRE3TK-luc 0.40 μg; pRL-TK 0.04 μg; pcDNA3.1(−) 0.03 μg; pRSV 0.03 μg; for “plus RXRα” cells pPPRE3TK-luc 0.40 μg; pRL-TK 0.04 μg; pcDNA3.1(−) 0.03 μg; pRSV/RXRα 0.03 μg; for “plus PPARα” cells pPPRE3TK-luc0.40 μg; pRL-TK 0.04 μg pcDNA3.1(−)/PPARα 0.03 μg pRSV 0.03 μg) in 25 μl of DMEM was incubated with 1 μl LipofectAMINE, also in 25 μl of DMEM for 45 minutes.
The mixture was then made up to 250 μl per well and added to the cells, which had been washed with 1 ml of DMEM. Cells were then incubated for 5 hours at 37° C., 5% CO2, and 250 μl DMEM with 20% SBCS (charcoal stripped bovine calf serum (Sigma)) added. Cells were allowed to recover for 18 hours at 37° C., 5% CO2 before being treated. […]

[1] = system: Corynebacterium A NCIMB 40928; assay: In vitro model of fatty acid catabolism by corynebacteria A (TVC, glucose and pentadecanoic acid utilisation); settings: 24 h
Experimental: An in vitro model system, reproducing fatty acid catabolism by corynebacteria A, consisted of 250 ml baffled shake flasks, to which were added 30 ml semi-synthetic medium (see below) supplemented with fatty acid substrate (2.0 mg/ml pentadecanoic acid) and non-fatty acid substrate (0.5 mg/ml glucose). This system was employed to evaluate sargahydroquinoic acid as a potential deodorant active: to each flask (other than the control) was added and specific dose of sargahydroquinoic acid (isolated from Kombo nut oil at >90% purity), from a 25 g/l stock emulsion in semi-synthetic medium supplemented with 5.0 mg/ml Gum Arabic (formed by ultra-homogenisation at 24000 rpm for 1 min) Flasks were inoculated with fresh bacterial biomass (Corynebacterium A NCIMB 40928), pre-grown for 24 h in TSBT (see below), to give starting optical densities (A5 9 0) of ˜1.0. Following inoculation, flasks were incubated aerobically at 35°0 C., with agitation (130 rpm), and analysed at 24 h. Culture viability was determined by total viable count (TVC) analysis on TSAT plates (see below) following serial dilution in quarter-strength Ringers solution. Fatty acid concentrations were determined by capillary gas chromatography (GC) (see below), while residual glucose levels were measured with blood glucose test strips (BM-Test 1-44; Boehringer Mannheim) used in conjunction with a ReflofluxS glucose meter (Boehringer Mannheim). A ‘sub-lethal’ effect is defined as significant inhibition of fatty acid catabolism, typically greater than 50% inhibition of pentadecanoic acid utilization, without concomitant reductions in Corynebacterium A viability (≦1 log10 CFU/ml reduction) or glucose utilization (≦10% reduction). Outside one or both of these defined boundaries, the effect may be described as ‘antimicrobial’, where ‘antimicrobial’ includes both bacteriostatic & bactericidal effects. Composition of Tween-supplemented Tryptone soya broth & agar (TSBT & TSAT) used for growth & maintenance of axillary bacterial (g/l): Tryptone soya broth (30.0); Yeast Extract (Beta Lab) (10.0); Tween 80™ (1.0); ± Agar (20.0). Composition of semi-synthetic medium used in in vitro system simulating fatty acid catabolism by corynebacteria A (g/l): KH2PO, (1.6);(NH4) 2HPO4(5.0); Na2SO4 (0.38); Yeast Nitrogen Base (Difco)(3.35); Yeast Extract (Beta Lab)(0.5); Tween 80™ (0.2); Triton X-100™ (0.2); MgCl2.6H20(0.5). Fatty acid levels in the flasks were determined by capillary GC analysis. Initially, 5.0 ml aliquots from each flask were transferred into universal tubes; an internal standard (lauric acid, 1.0 mg/ml final concentration) was added to each tube and the culture medium acidified (pH ˜2) by the addition of hydrochloric acid. Liquid-liquid extraction was then carried out using 2 vol (10 ml) ethyl acetate; organic and aqueous phases were resolved by centrifugation (2000 rpm, 3 min). ˜0.75 ml of each organic (upper) phase was then transferred to a sampling vial prior to analysis on a Perkin Elmer 8000 (Series 2) GC fitted with a 15 m ×0.32 mm (internal diameter) FFAP (nitroterephalic acid modified PEG/siloxane copolymer) fused silica capillary column (film thickness […]) (Quadrex). This column was attached to the split-splitless injector and flame ionisation detector (FID) of the GC; injector and detector temperatures were each 300° C. Carrier gas for the column was helium (6 psi), while hydrogen (17 psi) and air (23 psi) supplied the FID. The temperature programme for fatty acid analysis was 80° C.(2 min); 80-250° C. (20° C./min); 250° C. (5 min). Sample size for injection was 0.5-1.0 μl . Fatty acid levels in the flasks were quantified by comparison of peak areas with known levels of both internal (lauric acid) and externally-run (pentadecanoic acid) standards.

In the case of CC(C)=CCC/C(=C/CC/C(C)=C/CC/C(C)=C/Cc1cc(O)cc(C)c1O)C(=O)O [Sargahydroquinoic acid], the “effect on decorin production (FIG. 1)” value (decorin) is reported as “enhances decorin production”, the “PPARα ligand activity in reporter gene assay (FIG. 2)” value (PPARα) is reported as “is a ligand for PPARα” and the “Glucose Utilisation” value ([1]; 0.05 g/l) is reported as 100%. For the same compound, the “Pentadecanoic Acid Utilisation” value ([1]; 0.05 g/l) was 99%, the TVC ([1]; 0.05 g/l) was 8.67 log10 CFU/ml and the “Glucose Utilisation” value ([1]; 0.1 g/l, * sub-lethal) was 100* %. For the same compound, the “Pentadecanoic Acid Utilisation” value ([1]; 0.1 g/l, * sub-lethal) was 58* %, the TVC ([1]; 0.1 g/l, * sub-lethal) was 8.83* log10 CFU/ml and the “Glucose Utilisation” value ([1]; 0.25 g/l, * sub-lethal) was >90* %. For the same compound, the “Pentadecanoic Acid Utilisation” value ([1]; 0.25 g/l, * sub-lethal) was 15* %, the TVC ([1]; 0.25 g/l, * sub-lethal) was 7.93* log10 CFU/ml and the “Glucose Utilisation” value ([1]; 0.5 g/l, * sub-lethal) was 100* %. The “Pentadecanoic Acid Utilisation” value ([1]; 0.5 g/l, * sub-lethal) was 19* %, the TVC ([1]; 0.5 g/l, * sub-lethal) was 7.85* log10 CFU/ml and the “Glucose Utilisation” value ([1]; 1.0 g/l, antimicrobial effect) was over 90%. For the same compound, the “Pentadecanoic Acid Utilisation” value ([1]; 1.0 g/l, antimicrobial effect) was 5%, the TVC ([1]; 1.0 g/l, antimicrobial effect) was 7.3 log10 CFU/ml and the “Glucose Utilisation” value ([1]; 2.5 g/l, antimicrobial effect) was 7%. The “Pentadecanoic Acid Utilisation” value ([1]; 2.5 g/l, antimicrobial effect) was 25%, the TVC ([1]; 2.5 g/l, antimicrobial effect) was under 3.0 log10 CFU/ml and the inhibition at 50 µg/mL ([1]; Corynebacterium, NCIMB40928, 0.05 g/l, in parentheses = not significant) was 1%. For the same compound, the inhibition at 100 µg/mL ([1]; Corynebacterium, NCIMB40928, 0.1 g/l, * sub-lethal) was 42%, the inhibition at 250 µg/mL ([1]; Corynebacterium, NCIMB40928, 0.25 g/l, * sub-lethal) was 85% and the inhibition at 500 µg/mL ([1]; Corynebacterium, NCIMB40928, 0.5 g/l, * sub-lethal) was 81%. It also gave an inhibition at 1000 µg/mL ([1]; Corynebacterium, NCIMB40928, 1.0 g/l, antimicrobial effect) of 95% and an inhibition at 2500 µg/mL ([1]; Corynebacterium, NCIMB40928, 2.5 g/l, antimicrobial effect) of 75%.

— patent US20030206936A1, “Cosmetic composition and method of treating skin and hair” (Unilever Home & Personal Care USA, Division of Conopco, Inc., priority 2002, published 2003)
